According to patent US9902702B2, “Spirocycloheptanes as inhibitors of rock” (BRISTOL-MYERS SQUIBB COMPANY, priority 2014, dated 2018):
pIC50: −log10 of the molar value.

These compounds were tested against ROCK2 (Homo sapiens, UniProt O75116) (assay: ROCK assay: phosphorylation of FITC peptide substrate, LABCHIP 3000 mobility shift). Conditions: 5 μM ATP, 1.5 μM peptide substrate; read-out: ROCK2 Activity (ROCK IC50 range).
Assay type: biochemical
In short: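 IC50 values come from curve-fitting percent kinase inhibition across a compound dilution series. The reaction is started with Rho kinase variant in HEPES pH 7.5 buffer with MgCl2, Brij-35 and DTT, with 5 μM ATP, 1.5 μM FITC-labelled peptide and under 2% DMSO. After EDTA quench, product and substrate are separated by microfluidic mobility shift.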

Chain of ROCK2 (O75116 whole entry, species assumed): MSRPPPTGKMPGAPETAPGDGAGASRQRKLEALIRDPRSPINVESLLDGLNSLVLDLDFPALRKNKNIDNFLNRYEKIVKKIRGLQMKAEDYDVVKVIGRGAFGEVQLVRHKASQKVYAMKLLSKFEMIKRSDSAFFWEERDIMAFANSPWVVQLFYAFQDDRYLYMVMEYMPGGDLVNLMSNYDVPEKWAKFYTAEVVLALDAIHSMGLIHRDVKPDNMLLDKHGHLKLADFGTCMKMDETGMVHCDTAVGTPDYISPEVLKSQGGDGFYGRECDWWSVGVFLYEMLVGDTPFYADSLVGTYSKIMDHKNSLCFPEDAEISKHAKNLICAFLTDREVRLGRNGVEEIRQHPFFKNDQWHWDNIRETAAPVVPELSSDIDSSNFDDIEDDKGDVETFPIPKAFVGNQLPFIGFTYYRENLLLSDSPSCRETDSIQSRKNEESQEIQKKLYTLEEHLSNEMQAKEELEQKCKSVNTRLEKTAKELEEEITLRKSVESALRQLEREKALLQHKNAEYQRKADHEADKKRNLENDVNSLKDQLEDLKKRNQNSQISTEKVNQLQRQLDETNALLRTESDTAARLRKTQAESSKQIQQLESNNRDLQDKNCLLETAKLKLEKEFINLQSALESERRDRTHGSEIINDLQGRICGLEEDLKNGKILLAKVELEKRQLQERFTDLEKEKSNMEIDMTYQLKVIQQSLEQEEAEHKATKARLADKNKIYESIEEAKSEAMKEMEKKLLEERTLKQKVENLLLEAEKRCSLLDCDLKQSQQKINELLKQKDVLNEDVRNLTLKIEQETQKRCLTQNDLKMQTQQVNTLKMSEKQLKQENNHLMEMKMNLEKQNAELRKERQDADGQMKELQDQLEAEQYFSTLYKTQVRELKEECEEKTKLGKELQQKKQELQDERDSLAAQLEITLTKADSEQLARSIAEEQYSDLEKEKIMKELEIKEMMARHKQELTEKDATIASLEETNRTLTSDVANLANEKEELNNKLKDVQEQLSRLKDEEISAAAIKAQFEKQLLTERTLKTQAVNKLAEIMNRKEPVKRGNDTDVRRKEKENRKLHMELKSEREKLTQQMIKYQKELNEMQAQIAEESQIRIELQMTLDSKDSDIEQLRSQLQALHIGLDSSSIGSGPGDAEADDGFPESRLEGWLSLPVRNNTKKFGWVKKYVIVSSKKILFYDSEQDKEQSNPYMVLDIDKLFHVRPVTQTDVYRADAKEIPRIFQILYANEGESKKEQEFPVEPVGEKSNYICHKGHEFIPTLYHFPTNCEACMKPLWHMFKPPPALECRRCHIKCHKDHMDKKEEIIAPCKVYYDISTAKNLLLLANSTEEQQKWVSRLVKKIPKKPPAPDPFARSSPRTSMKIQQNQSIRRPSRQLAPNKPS

Row | Structure (SMILES) | pIC50
1 | CC(C)(C)n1cc(-c2ccc3c(c2)CN(C(=O)NC2CC4(C2)CC(c2n[nH]c(=O)c5ccccc25)C4)C3)cn1 [Example 252, 5-(1-(tert-butyl)-1H-pyrazol-4-yl)-N-((aR)-6-(4-oxo-3,4-dihydrophthalazin-1-yl)spiro[3.3]heptan-2-yl)isoindoline-2-carboxamide] | 7.82 to 8.29
2 | CC(C)(O)Cn1nc(C(=O)N[C@H]2CC3(C2)C[C@H](c2n[nH]c(=O)c4ccccc42)C3)c2ccc(C3CC3)cc21 (stereo partly drawn) [Example 142, 6-cyclopropyl-1-(2-hydroxy-2-methylpropyl)-N-((aR)-6-(4-oxo-3,4-dihydrophthalazin-1-yl)spiro[3.3]heptan-2-yl)-1H-indazole-3-carboxamide] | 8.30 to 8.70
3 | O=C(C1CC2(C1)CC(c1n[nH]c(=O)c3ccccc13)C2)N1Cc2ccccc2C1 (centres unmarked) [Example 47, 4-[6-(2,3-dihydro-1H-isoindole-2-carbonyl)spiro[3.3]heptan-2-yl]-1,2-dihydrophthalazin-1-one] | 5.68 to 7.00
4 | [H][C@]1(c2n[nH]c(=O)c3ccccc32)C[C@]2(C[C@@H](NC(=O)c3cn(C)c4ccccc34)C2)C1 (stereo partly drawn) [Example 364, 1-methyl-N-((aR)-6-(4-oxo-3,4-dihydrophthalazin-1-yl)spiro[3.3]heptan-2-yl)-1H-indole-3-carboxamide] | 7.82 to 8.29
5 | [H][C@]1(c2n[nH]c(=O)c3ccccc32)C[C@]2(C[C@@H](NC(=O)c3cnc4cc(Oc5ccccn5)ccn34)C2)C1 (stereo partly drawn) [Example 434, N-((aR)-6-(4-oxo-3,4-dihydrophthalazin-1-yl)spiro[3.3]heptan-2-yl)-7-(pyridin-2-yloxy)imidazo[1,2-a]pyridine-3-carboxamidc] | 8.70 to 9.70
6 | [H][C@]1(c2n[nH]c(=O)c3ccccc32)C[C@]2(C[C@@H](NC(=O)c3cnc4cc(OCCN5CCOCC5)ccn34)C2)C1 (stereo partly drawn) [Example 398, 7-(2-morpholinoethoxy)-N-((aR)-6-(4-oxo-3,4-dihydrophthalazin-1-yl)spiro[3.3]heptan-2-yl)imidazo[1,2-a]pyridine-3-carboxamide] | 8.70 to 9.70
7 | [H][C@]1(c2n[nH]c(=O)c3ccccc32)C[C@]2(C[C@@H](NC(=O)c3ccc(-n4cncn4)cc3)C2)C1 (stereo partly drawn) [Example 348, N-((aR)-6-(4-oxo-3,4-dihydrophthalazin-1-yl)spiro[3.3]heptan-2-yl)-4-(1H-1,2,4-triazol-1-yl)benzamide] | 7.00 to 7.82
8 | COc1ccc2c(C(=O)NC3CC4(C3)CC(c3n[nH]c(=O)c5ccccc35)C4)cnn2c1 [Example 63, 6-methoxy-N-((aR)-6-(4-oxo-3,4-dihydrophthalazin-1-yl)spiro[3.3]heptan-2-yl)pyrazolo[1,5-a]pyridine-3-carboxamide] | 8.70 to 9.70
9 | COc1ncc(-c2ccc3c(C(=O)NC4CC5(C4)CC(c4n[nH]c(=O)c6ccccc46)C5)cnn3c2)cn1 [Example 210, 6-(2-methoxypyrimidin-5-yl)-N-((aR)-6-(4-oxo-3,4-dihydrophthalazin-1-yl)spiro[3.3]heptan-2-yl)pyrazolo[1,5-a]pyridine-3-carboxamide] | 8.30 to 8.70
10 | O=C(NC1CC2(C1)CC(c1n[nH]c(=O)c3ccccc13)C2)c1cnn2cc(CCCNC3CC3)ccc12 (centres unmarked) [Example 194] | 7.82 to 8.29
11 | O=c1[nH]nc([C@H]2CC3(C[C@H](Nc4ncc(-c5ccccc5)o4)C3)C2)c2ccccc12 (stereo partly drawn) [Example 44, 4-((aR)-6-((5-phenyloxazol-2-yl)amino)spiro[3.3]heptan-2-yl)phthalazin-1(2H)-one(2H)-one] | 5.68 to 7.00
12 | [H][C@]1(c2n[nH]c(=O)c3ccccc32)C[C@]2(C[C@@H](NC(=O)c3ccc4c(c3)ncn4C(C)C)C2)C1 (stereo partly drawn) [Example 307, 1-isopropyl-N-((aR)-6-(4-oxo-3,4-dihydrophthalazin-1-yl)spiro[3.3]heptan-2-yl)-1H-benzo[d] imidazole-5-carboxamide] | 7.82 to 8.29
13 | O=C(NC1CC2(C1)CC(c1n[nH]c(=O)c3ccccc13)C2)c1cnn2cc(OCCOCC(F)(F)F)ccc12 (stereo not drawn) [Example 139, N-((αR)-6-(4-oxo-3,4-dihydrophthalazin-1-yl)spiro[3.3]heptan-2-yl)-6-(2-(2,2,2-trifluoroethoxy)ethoxy)pyrazolo[1,5-α]pyridine-3-carboxamide] | 8.70 to 9.70
14 | [H][C@]1(c2n[nH]c(=O)c3ccccc32)C[C@]2(C[C@@H](NC(=O)c3ccc(-c4cnn(C)c4)cn3)C2)C1 (stereo partly drawn) [Example 450, 5-(1-methyl-1H-pyrazol-4-yl)-N-((aR)-6-(4-oxo-3,4-dihydrophthalazin-1-yl)spiro[3.3]heptan-2-yl)picolinamide] | 7.00 to 7.82
15 | [H][C@]1(c2n[nH]c(=O)c3ccccc32)C[C@]2(C[C@@H](NC(=O)c3ccc(CCN4CCCC4)nc3)C2)C1 (stereo partly drawn) [Example 344, N-((aR)-6-(4-oxo-3,4-dihydrophthalazin-1-yl)spiro[3.3]heptan-2-yl)-6-(2-(pyrrolidin-1-yl)ethyl)nicotinamide] | 5.68 to 7.00
16 | O=C(NC1CC2(C1)CC(c1n[nH]c(=O)c3ccccc13)C2)N1Cc2ccncc2C1 [Example 264, N-((aR)-6-(4-oxo-3,4-dihydrophthalazin-1-yl)spiro[3.3]heptan-2-yl)-1H-pyrrolo[3,4-c]pyridine-2(3H)-carboxamide] | 7.00 to 7.82
17 | [H][C@]1(c2n[nH]c(=O)c3ccccc32)C[C@@]2(C[C@H](NC(=O)c3nc4c(s3)CN(C)CC4)C2)C1 (stereo partly drawn) [Example 296, 5-methyl-N-((aR)-6-(4-oxo-3,4-dihydrophthalazin-1-yl)spiro[3.3]heptan-2-yl)-4,5,6,7-tetrahydrothiazolo [5,4-c]pyridine-2-carboxamide] | 5.68 to 7.00
18 | O=C(NC1CC2(C1)CC(c1n[nH]c(=O)c3ccccc13)C2)c1cnn2cc(OC3CCC(F)(F)CC3)ccc12 (stereo not drawn) [Example 134, 6-((4,4-difluorocyclohexyl)oxy)-N-((αR)-6-(4-oxo-3,4-dihydrophthalazin-1-yl)spiro[3.3]heptan-2-yl)pyrazolo[1,5-α]pyridine-3-carboxamide] | 8.70 to 9.70
19 | [H][C@]1(c2n[nH]c(=O)c3ccccc32)C[C@]2(C[C@@H](NC(=O)c3cnc4cc(N(C)CC(C)(C)O)ccn34)C2)C1 (stereo partly drawn) [Example 399, 7-((2-hydroxy-2-methyl-propyl)(methyl)amino)-N-((aR)-6-(4-oxo-3,4-dihydrophthalazin-1-yl)spiro[3.3]heptan-2-yl)imidazo[1,2-a]pyridine-3-carboxamide] | 8.30 to 8.70

Continued, values first:

Row | pIC50 | Structure (SMILES)
20 | 8.70 to 9.70 | CC(C)(O)CCc1ccc2c(C(=O)N[C@H]3CC4(C3)C[C@H](c3n[nH]c(=O)c5ccccc53)C4)cnn2c1 (stereo partly drawn) [Example 198, 6-(3-hydroxy-3-methylbutyl)-N-((aR)-6-(4-oxo-3,4-dihydrophthalazin-1-yl)spiro[3.3]heptan-2-yl)pyrazolo[1,5-a]pyridine-3-carboxamide]
21 | 8.70 to 9.70 | Cc1nn(C)c(C)c1-c1ccc2c(C(=O)NC3CC4(C3)CC(c3n[nH]c(=O)c5ccccc35)C4)cnn2c1 [Example 221, N-((aR)-6-(4-oxo-3,4-dihydrophthalazin-1-yl)spiro[3.3]heptan-2-yl)-6-(1,3,5-trimethyl-1H-pyrazol-4-yl)pyrazolo[1,5-a]pyridine-3-carboxamide]
22 | 7.82 to 8.29 | Cc1sc(N2CCC(C#N)C2)nc1C(=O)NC1CC2(C1)CC(c1n[nH]c(=O)c3ccccc13)C2 [Example 55, 2-((S)-3-cyanopyrrolidin-1-yl)-5-methyl-N-((aR)-6-(4-oxo-3,4-dihydrophthalazin-1-yl)spiro[3.3]heptan-2-yl)thiazole-4-carboxamide]
23 | 7.00 to 7.82 | [H][C@]1(c2n[nH]c(=O)c3ccccc32)C[C@]2(C[C@@H](NC(=O)c3ccc4nc(C)oc4c3)C2)C1 (stereo partly drawn) [Example 315, 2-methyl-N-((aR)-6-(4-oxo-3,4-dihydrophthalazin-1-yl)spiro[3.3]heptan-2-yl)benzo[d] oxazole-6-carboxamide]
24 | 8.30 to 8.70 | CC(C)(O)Cn1nc(C(=O)NC2CC3(C2)CC(c2n[nH]c(=O)c4ccccc24)C3)c2ccc(-c3c(F)cccc3F)cc21 (centres unmarked) [Example 159, 6-(2,6-difluorophenyl)-1-(2-hydroxy-2-methylpropyl)-N-((αR)-6-(4-oxo-3,4-dihydrophthalazin-1-yl)spiro[3.3]heptan-2-yl)-1H-indazole-3-carboxamide]
25 | 7.82 to 8.29 | [H][C@]1(c2n[nH]c(=O)c3ccccc32)C[C@]2(C[C@@H](NC(=O)c3ccc(-c4cnn(C5CCOCC5)c4)c(F)c3)C2)C1 (stereo partly drawn) [Example 449, 3-fluoro-N-((aR)-6-(4-oxo-3,4-dihydrophthalazin-1-yl)spiro[3.3]heptan-2-yl)-4-(1-(tetrahydro-2H-pyran-4-yl)-1H-pyrazol-4-yl)benzamide]
26 | 7.82 to 8.29 | Cn1cc(-c2ccc3c(c2)CN(C(=O)NC2CC4(C2)CC(c2n[nH]c(=O)c5ccccc25)C4)C3)cn1 [Example 250, 5-(1-methyl-1H-pyrazol-4-yl)-N-((aR)-6-(4-oxo-3,4-dihydrophthalazin-1-yl)spiro[3.3]heptan-2-yl)isoindoline-2-carboxamide]
27 | 8.30 to 8.70 | [H][C@]1(c2n[nH]c(=O)c3ccccc32)C[C@]2(C[C@@H](NC(=O)c3ccc(-c4cnn(C)c4)c(F)c3)C2)C1 (stereo partly drawn) [Example 423, 3-fluoro-4-(1-methyl-1H-pyrazol-4-yl)-N-((aR)-6-(4-oxo-3,4-dihydrophthalazin-1-yl)spiro[3.3]heptan-2-yl)benzamide]
28 | 7.82 to 8.29 | O=C(NC1CC2(C1)CC(c1n[nH]c(=O)c3ccccc13)C2)c1ccn(CCC(F)(F)F)n1 [Example 22, N-[(aR)-6-(4-oxo-3,4-dihydrophthalazin-1-yl)spiro[3.3]heptan-2-yl]-1-(3,3,3-trifluoropropyl)-1H-pyrazole-3-carboxamide]
29 | 8.70 to 9.70 | O=C(NC1CC2(C1)CC(c1n[nH]c(=O)c3ccccc13)C2)c1cnn2cc(-c3cnn(C4CCOCC4)c3)ccc12 [Example 222, N-((aR)-6-(4-oxo-3,4-dihydrophthalazin-1-yl)spiro[3.3]heptan-2-yl)-6-(1-(tetrahydro-2H-pyran-4-yl)-1H-pyrazol-4-yl)pyrazolo[1,5-a]pyridine-3-carboxamide]
